US9884063B2, “Amido-substituted azole compounds” (Bayer Pharma Aktiengesellschaft, priority 2014, dated 2018)

Key:
TNKS2 = biological target: T1, TNKS2 (Homo sapiens, UniProt Q9H2K2); assay: Modified TNKS2 Assay 3 (BPS kit #80578, biotin-NAD+, 96 well); assay type: biochemical; details: human TNKS2, BPS kit #80578, 96 well
T1 sequence (Q9H2K2 1-1166): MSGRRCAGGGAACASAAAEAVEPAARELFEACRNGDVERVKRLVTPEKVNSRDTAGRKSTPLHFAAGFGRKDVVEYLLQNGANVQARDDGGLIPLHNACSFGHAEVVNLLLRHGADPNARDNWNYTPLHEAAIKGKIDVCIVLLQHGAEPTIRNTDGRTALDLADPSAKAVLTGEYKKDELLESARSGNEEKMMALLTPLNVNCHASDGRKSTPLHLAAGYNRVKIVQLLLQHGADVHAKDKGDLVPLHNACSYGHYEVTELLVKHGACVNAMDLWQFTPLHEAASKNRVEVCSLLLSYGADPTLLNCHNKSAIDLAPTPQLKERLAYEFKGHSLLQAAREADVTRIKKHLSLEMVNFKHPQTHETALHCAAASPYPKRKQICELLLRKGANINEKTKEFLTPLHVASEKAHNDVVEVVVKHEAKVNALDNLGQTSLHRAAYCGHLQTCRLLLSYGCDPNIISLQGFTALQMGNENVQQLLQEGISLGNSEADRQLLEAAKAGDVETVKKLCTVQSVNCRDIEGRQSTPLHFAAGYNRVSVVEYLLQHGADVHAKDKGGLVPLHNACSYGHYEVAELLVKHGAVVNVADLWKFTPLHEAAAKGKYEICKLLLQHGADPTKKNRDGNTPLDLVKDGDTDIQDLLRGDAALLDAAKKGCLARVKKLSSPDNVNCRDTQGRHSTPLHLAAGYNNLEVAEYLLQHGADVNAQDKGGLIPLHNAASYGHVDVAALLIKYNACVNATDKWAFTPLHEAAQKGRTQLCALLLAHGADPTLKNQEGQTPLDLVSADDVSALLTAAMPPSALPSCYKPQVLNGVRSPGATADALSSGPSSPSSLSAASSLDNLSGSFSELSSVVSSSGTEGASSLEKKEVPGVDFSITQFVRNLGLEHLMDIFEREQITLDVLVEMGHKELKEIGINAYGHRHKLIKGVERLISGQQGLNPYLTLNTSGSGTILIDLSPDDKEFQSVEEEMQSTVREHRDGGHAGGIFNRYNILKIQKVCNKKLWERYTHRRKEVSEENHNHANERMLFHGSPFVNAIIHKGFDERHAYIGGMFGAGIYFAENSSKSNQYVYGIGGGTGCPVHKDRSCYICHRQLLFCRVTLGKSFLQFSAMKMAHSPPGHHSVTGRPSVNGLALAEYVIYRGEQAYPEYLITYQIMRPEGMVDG
How it was run: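 Commercial kit assay measuring TNKS2-catalysed incorporation of biotin-labelled NAD+ into a protein substrate, detected by streptavidin-HRP chemiluminescence. Run per manufacturer's protocol; IC50 is the concentration halving the normalised signal.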

[1] = system: wildtype Wnt signaling cascade; assay: HEK293 TOP Assay (Super TopFlash luciferase reporter, Wnt-3a stimulated); assay type: cell-based
How it was run: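 HEK293 cells stably carrying Super TopFlash (TOP) or FOP reporter, stimulated with recombinant human Wnt-3a (2500–5 ng/ml, two-fold steps). Both lines incubated in parallel with compound from 50 μM to 15 nM (3.16-fold) in CAFTY buffer pH 7.4 with 2 mM Ca2+ and 0.01% BSA; selectivity judged TOP vs FOP.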

[2] = HEK293 TOP reporter cell line, Wnt-3a at EC50, 16 hours incubation, compound dilution series 50 μM to 15 nM
[3] = Homo sapiens, HEK293, 16 h, HEK293 TOP reporter cell line, Wnt-3a at EC50, 16 hours incubation, compound dilution series 50 μM to 15 nM
[4] = Homo sapiens, HEK293, 16 h, HEK293 TOP reporter cells, Wnt3a at EC50, 16 hours, luciferase

Structure (SMILES)	IC50 (TNKS2) [µM]	IC50 [1, 2] [µM]	IC50 [1, 3] [µM]	IC50 [1, 4] [µM]
COC(=O)c1nc[nH]c1C(=O)Nc1ccc(NC(=O)c2ccc(F)cc2Cl)cc1 [Example 13, Methyl 5-({4-[(2-chloro-4-fluorobenzoyl)amino]phenyl}carbamoyl)-1H-imidazole-4-carboxylate]	0.02	–	0.13	0.13
CN(C)CCNC(=O)c1ncoc1C(=O)Nc1ccc(NC(=O)c2ccc(F)cc2Cl)cc1 [Example 31, N^5-{4-[(2-chloro-4-fluorobenzoyl)amino]phenyl}-N^4-[2-(dimethylamino)ethyl]-1,3-oxazole-4,5-dicarboxamide]	0.13	–	1.6	1.6
O=C(Nc1ccc(NC(=O)c2[nH]cnc2C(=O)NCCN2CCCCC2)cc1)c1ccc(F)cc1 [Example 33, N^4-{4-[(4-fluorobenzoyl)amino]phenyl}-N^5-[2-(piperidin-1-yl)ethyl]-1H-imidazole-4,5-dicarboxamide]	> 0.5	–	0.45	0.63
CNC(=O)c1nc[nH]c1C(=O)Nc1ccc(NC(=O)c2c(C)cc(C)cc2C)cc1 [Example 35, N^5-{4-[(mesitylcarbonyl)amino]phenyl}-N^4-methyl-1H-imidazole-4,5-dicarboxamide]	> 0.5	–	0.76	0.76
CNC(=O)c1nc[nH]c1C(=O)Nc1ccc(NC(=O)c2ccccc2Br)cc1 [Example 37, N^5-{4-[(2-bromobenzoyl)amino]phenyl}-N^4-methyl-1H-imidazole-4,5-dicarboxamide]	0.26	–	0.33	0.33
O=C(Nc1ccc(NC(=O)c2[nH]cnc2C(=O)N2CC(F)C2)cc1)c1ccc(F)cc1Cl [Example 41, N-{4-[(2-chloro-4-fluorobenzoyl)amino]phenyl}-4-[(3-fluoroazetidin-1-yl)carbonyl]-1H-imidazole-5-carboxamide]	0.07	–	0.09	–
O=C(Nc1ccc(NC(=O)c2[nH]cnc2C(=O)NC2CC2)cc1)c1ccc(F)cc1Cl [Example 45, N^5-{4-[(2-chloro-4-fluorobenzoyl)amino]phenyl}-N^4-cyclopropyl-1H-imidazole-4,5-dicarboxamide]	0.04	–	0.19	–
O=C(Nc1ccc(NC(=O)c2[nH]cnc2C(=O)N2CC(F)C2)cc1)c1cc(F)c(F)cc1Cl [Example 47, N-{4-[(2-chloro-4,5-difluorobenzoyl)amino]phenyl}-4-[(3-fluoroazetidin-1-yl)carbonyl]-1H-imidazole-5-carboxamide]	> 0.5	–	0.34	–
O=C(Nc1ccc(NC(=O)c2[nH]cnc2C(=O)NCCC2CC2)cc1)c1cc(F)c(F)cc1Cl [Example 49, N^5-{4-[(2-chloro-4,5-difluorobenzoyl)amino]phenyl}-N^4-(2-cyclopropylethyl)-1H-imidazole-4,5-dicarboxamide]	> 0.5	–	0.35	–
CN(C)CCNC(=O)c1nc[nH]c1C(=O)Nc1ccc(NC(=O)c2ccc(S(C)(=O)=O)cc2Cl)cc1 [Example 54, N^5-(4-{[2-chloro-4-(methylsulfonyl)benzoyl]amino}phenyl)-N^4-[2-(dimethylamino)ethyl]-1H-imidazole-4,5-dicarboxamide]	0.006	–	1.45	–
O=C(Nc1ccc(NC(=O)c2[nH]cnc2C(=O)NCCN2CCCCC2)cc1)c1cc(OC(F)(F)F)ccc1Br [Example 63, N^5-(4-{[2-bromo-5-(trifluoromethoxy)benzoyl]amino}phenyl)-N^4-[2-(piperidin-1-yl)ethyl]-1H-imidazole-4,5-dicarboxamide]	0.004	–	0.11	–
COC(=O)c1nc[nH]c1C(=O)Nc1ccc(NC(=O)c2ccccc2Cl)c(C)c1 [Example 86, methyl-5-({4-[(2-chlorobenzoyl)amino]-3-methylphenyl}carbamoyl)-1H-imidazole-4-carboxylate]	–	–	0.42	–
Cc1cc(NC(=O)c2[nH]cnc2C(=O)NCCN2CCCCC2)ccc1NC(=O)c1ccccc1Cl [Example 89, N^5-{4-[(2-chlorobenzoyl)amino]-3-methylphenyl}-N^4-[2-(piperidin-1-yl)ethyl]-1H-imidazole-4,5-dicarboxamide]	–	–	0.6	–

Next, values leading:

IC50 (TNKS2) [µM]	IC50 [1, 2] [µM]	IC50 [1, 3] [µM]	IC50 [1, 4] [µM]	Structure (SMILES)
0.13	0.44	–	–	CC(CN1CCOCC1)NC(=O)c1[nH]cnc1C(=O)Nc1ccc(NC(=O)c2ccc(F)cc2Cl)cc1 (single isomer, unassigned; enantiomer 1) [Example 269, N^4-{4-[(2-chloro-4-fluorobenzoyl)amino]phenyl}-N^5-[1-(morpholin-4-yl)propan-2-yl]-1H-imidazole-4,5-dicarboxamide (enantiomer 1)]
0.19	0.69	–	–	CC(CN1CCOCC1)NC(=O)c1[nH]cnc1C(=O)Nc1ccc(NC(=O)c2ccc(F)cc2)cc1 (single isomer, unassigned; enantiomer 1) [Example 295, N^4-{4-[(4-fluorobenzoyl)amino]phenyl}-N^5-[1-(morpholin-4-yl)propan-2-yl]-1H-imidazole-4,5-dicarboxamide (enantiomer 1)]
> 0.5	6.45	–	–	CC(CN1CCOCC1)NC(=O)c1[nH]cnc1C(=O)Nc1ccc(NC(=O)c2ccc(F)cc2)cc1 (single isomer, unassigned; enantiomer 2) [Example 296, N^4-{4-[(4-fluorobenzoyl)amino]phenyl}-N^5-[1-(morpholin-4-yl)propan-2-yl]-1H-imidazole-4,5-dicarboxamide (enantiomer 2)]
–	–	0.83	–	COC(=O)c1nc[nH]c1C(=O)Nc1ccc(NC(=O)c2ccc(F)cc2Cl)c(OC)c1 [Example 94, methyl 5-({4-[(2-chloro-4-fluorobenzoyl)amino]-3-methoxyphenyl}carbamoyl)-1H-imidazole-4-carboxylate]
–	–	0.31	–	COc1cc(NC(=O)c2[nH]cnc2C(=O)NCCN(C)C)ccc1NC(=O)c1ccc(F)cc1Cl [Example 96, N^5-{4-[(2-chloro-4-fluorobenzoyl)amino]-3-methoxyphenyl}-N^4-[2-(dimethylamino)ethyl]-1H-imidazole-4,5-dicarboxamide]
–	–	1.15	–	COC(=O)c1nc[nH]c1C(=O)Nc1ccc(NC(=O)c2ccccc2Cl)c(OC)c1 [Example 98, methyl 5-({4-[(2-chlorobenzoyl)amino]-3-methoxyphenyl}carbamoyl)-1H-imidazole-4-carboxylate]
–	–	0.79	–	COc1cc(NC(=O)c2[nH]cnc2C(=O)NCCN(C)C)ccc1NC(=O)c1ccccc1Cl [Example 100, N^5-{4-[(2-chlorobenzoyl)amino]-3-methoxyphenyl}-N^4-[2-(dimethylamino)ethyl]-1H-imidazole-4,5-dicarboxamide]
–	–	50	–	COC(=O)c1nc[nH]c1C(=O)Nc1ccc(NC(=O)c2ccc(F)cc2)c(OC)c1 [Example 102, methyl 5-({4-[(4-fluorobenzoyl)amino]-3-methoxyphenyl}carbamoyl)-1H-imidazole-4-carboxylate]
–	–	27	–	CNC(=O)c1[nH]c(C(C)C)nc1C(=O)Nc1ccc(NC(=O)c2ccc(F)cc2Cl)cc1 [Example 106, N^4-{4-[(2-chloro-4-fluorobenzoyl)amino]phenyl}-2-isopropyl-N^5-methyl-1H-imidazole-4,5-dicarboxamide]
–	–	2.55	–	CNC(=O)c1nc[nH]c1C(=O)Nc1ccc(NC(=O)c2ccccc2Cl)nc1 [Example 112, N^5-{6-[(2-chlorobenzoyl)amino]pyridin-3-yl}-N^4-methyl-1H-imidazole-4,5-dicarboxamide]
–	–	0.46	–	CN(C)CCNC(=O)c1nc[nH]c1C(=O)Nc1ccc(NC(=O)c2ccccc2Cl)nc1 [Example 113, N^5-{6-[(2-chlorobenzoyl)amino]pyridin-3-yl}-N^4-[2-(dimethylamino)ethyl]-1H-imidazole-4,5-dicarboxamide]
